Assays:
[1] = system: Klebsiella pneumoniae; test: Adjuvant broth microdilution (antibiotic MIC with SP-BIM at 50 μg/mL); format: cell-based; details: Klebsiella pneumoniae; antibiotic alone; Table 7
[2] = system: Enterococcus faecium; test: Checkerboard synergy (FICI) of antibiotics with SP-BIM; format: cell-based; details: Enterococcus faecium; for MIC antibiotic only: antibiotic alone
[3] = system: Streptococcus pneumoniae; test: as above; format: cell-based; details: for MIC antibiotic only: antibiotic alone
[4] = system: Streptococcus pneumoniae; test: Adjuvant broth microdilution (antibiotic MIC with SP-BIM at 50 μg/mL); format: cell-based; details: Streptococcus pneumonia; antibiotic alone; Table 5
[5] = system: Candida albicans; test: Checkerboard synergy (FICI) of antibiotics with SP-BIM; parameters: MIC SP-BIM 13 only / MIC in combination: Antibiotic / MIC antibiotic only: unit not given beside the values
[6] = system: Klebsiella pneumoniae; test: as above; format: cell-based; details: for MIC antibiotic only: antibiotic alone
[7] = system: Staphylococcus aureus; test: as above; format: cell-based; details: Staphylococcus aureus; for MIC antibiotic only: antibiotic alone
[8] = system: Bacillus cereus; test: as above; format: cell-based; details: for MIC antibiotic only: antibiotic alone
[9] = system: Escherichia coli; test: microbe, parasite or virus in culture; format: cell-based; details: antibiotic alone, Table 6
[10] = system: MRSA; test: Adjuvant broth microdilution (antibiotic MIC with SP-BIM at 50 μg/mL); format: cell-based, Staphylococcus aureus; details: antibiotic alone, Table 4
[11] = system: Escherichia coli; test: Checkerboard synergy (FICI) of antibiotics with SP-BIM; parameters: MIC SP-BIM 13 only / MIC in combination: Antibiotic: unit not given beside the values; details: for MIC antibiotic only: antibiotic alone
[12] = system: clinical strains of MRSA; test: Kirby Bauer disc diffusion susceptibility profile; format: cell-based, Staphylococcus aureus; details: for Zone of clearance: 35° C., 24 hours, average n=3; for Interpretive standard (resistant/susceptible): zones vs EUCAST breakpoints (Table 30)
[13] = system: Enterococcus faecalis; test: Adjuvant broth microdilution (antibiotic MIC with SP-BIM at 50 μg/mL); format: cell-based; details: antibiotic alone
[14] = system: Escherichia coli O157:H7; test: Rescue concentrations of SP-BIM that reactivate antibiotic; format: cell-based
[15] = SP-BIM 13 concentration in combination with the labelled antibiotic
[16] = SP-BIM 13 in combination with the labelled antibiotic
[17] = antibiotic in combination with SP-BIM 13
[18] = Streptococcus pneumonia (title: Streptococcus pyogenes), antibiotic + SP-BIM 9
[19] = Streptococcus pneumoniae, antibiotic + SP-BIM 13
[20] = MIC of the antibiotic in combination with SP-BIM 13
[21] = SP-BIM 9 concentration in combination with the labelled antibiotic
[22] = SP-BIM 9 in combination with the labelled antibiotic
[23] = antibiotic in combination with SP-BIM 9

For `CC1=C(C(=O)O)N2C(=O)[C@@H](NC(=O)[C@H](N)c3ccccc3)[C@H]2SC1` [Cephalexin, cefalexin], the “MIC of antibiotic, No Compound” value [1] was 8 µg/mL, the “MIC in combination, SP-BIM 13” value [2, 15] was 63 µg/mL and the “FIC of SP-BIM 13” value [2, 16] was 0.5. For the same compound, the Interpretation ([2]; antibiotic + SP-BIM 13) was “Synergy (Synergy: FICI≤0.5)”, the “Σ FIC” value ([2]; antibiotic + SP-BIM 13) was 0.5 and the MIC antibiotic only ([2]; SP-BIM 9 checkerboard) was 250 µg/mL. For the same compound, the MIC antibiotic only ([2]; SP-BIM 13 checkerboard) was 250 µg/mL, the “MIC in combination, Antibiotic” value [2, 17] was 8 µg/mL and the FIC of antibiotic ([2]; in combination with SP-BIM 13) was 0.0. For the same compound, the “MIC in combination, SP-BIM 9” value ([3]; Streptococcus pneumonia (title: Streptococcus pyogenes), SP-BIM 9 concentration in combination with the labelled antibiotic) was 125 µg/mL, the “FIC of SP-BIM 9” value ([3]; Streptococcus pneumonia (title: Streptococcus pyogenes), SP-BIM 9 in combination with the labelled antibiotic) was 0.50 and the Interpretation [3, 18] was “Additive (Additive: FICI>0.5-1.0)”. For the same compound, the “Σ FIC” value [3, 18] was under 0.63, the MIC antibiotic only ([3]; Streptococcus pneumonia (title: Streptococcus pyogenes), SP-BIM 9 checkerboard) was 250 µg/mL and the “MIC in combination, Antibiotic” value ([3]; Streptococcus pneumonia (title: Streptococcus pyogenes), antibiotic in combination with SP-BIM 9) was 32 µg/mL. For the same compound, the FIC of antibiotic ([3]; Streptococcus pneumonia (title: Streptococcus pyogenes), in combination with SP-BIM 9) was 0.13, the “MIC in combination, SP-BIM 13” value ([3]; Streptococcus pneumoniae, SP-BIM 13 concentration in combination with the labelled antibiotic) was 63 µg/mL and the “FIC of SP-BIM 13” value ([3]; Streptococcus pneumoniae, SP-BIM 13 in combination with the labelled antibiotic) was 0.3. For the same compound, the Interpretation [3, 19] was “Synergy (Synergy: FICI≤0.5)”, the “Σ FIC” value [3, 19] was under 0.3 and the MIC antibiotic only ([3]; Streptococcus pneumoniae, SP-BIM 13 checkerboard) was 250 µg/mL. For the same compound, the “MIC in combination, Antibiotic” value ([3]; Streptococcus pneumoniae, antibiotic in combination with SP-BIM 13) was 2 µg/mL, the FIC of antibiotic ([3]; Streptococcus pneumoniae, in combination with SP-BIM 13) was 0.0 and the “MIC of antibiotic, No Compound” value [4] was 250 µg/mL. The “MIC in combination: Antibiotic” value [5, 20] was 63, the “FIC of SP-BIM 13” value [5, 16] was 0.5 and the Interpretation ([5]; antibiotic + SP-BIM 13) was “Additive (Additive: FICI>0.5-1.0)”. The “Σ FIC” value ([5]; antibiotic + SP-BIM 13) was under 0.8, the MIC antibiotic only ([5]; antibiotic alone) was over 250 and the FIC of antibiotic ([5]; combination with SP-BIM 13) was 0.3. For the same compound, the “MIC in combination, SP-BIM 9” value [6, 21] was 125 µg/mL, the “FIC of SP-BIM 9” value [6, 22] was 0.5 and the “MIC in combination, SP-BIM 13” value [6, 15] was 63 µg/mL. For the same compound, the “FIC of SP-BIM 13” value [6, 16] was 0.3, the Interpretation ([6]; antibiotic + SP-BIM 9) was “Synergy (Synergy: FICI≤0.5)” and the “Σ FIC” value ([6]; antibiotic + SP-BIM 9) was under 0.5. The Interpretation ([6]; antibiotic + SP-BIM 13) was “Synergy (Synergy: FICI≤0.5)”, the “Σ FIC” value ([6]; antibiotic + SP-BIM 13) was under 0.5 and the MIC antibiotic only ([6]; SP-BIM 9 checkerboard) was 250 µg/mL. For the same compound, the MIC antibiotic only ([6]; SP-BIM 13 checkerboard) was 250 µg/mL, the “MIC in combination, Antibiotic” value [6, 23] was 4 µg/mL and the “MIC in combination, Antibiotic” value [6, 17] was 63 µg/mL. The FIC of antibiotic ([6]; in combination with SP-BIM 9) was 0.016, the FIC of antibiotic ([6]; in combination with SP-BIM 13) was 0.3 and the “MIC in combination, SP-BIM 9” value [7, 21] was 16.0 µg/mL. The “FIC of SP-BIM 9” value [7, 22] was 0.06, the “MIC in combination, SP-BIM 13” value [7, 15] was 63 µg/mL and the “FIC of SP-BIM 13” value [7, 16] was 0.5. For the same compound, the Interpretation ([7]; antibiotic + SP-BIM 9) was “Synergy (Synergy: FICI≤0.5)”, the “Σ FIC” value ([7]; antibiotic + SP-BIM 9) was under 0.19 and the Interpretation ([7]; antibiotic + SP-BIM 13) was “Additive (Additive: FICI>0.5-1.0)”. For the same compound, the “Σ FIC” value ([7]; antibiotic + SP-BIM 13) was 0.6, the MIC antibiotic only ([7]; SP-BIM 9 checkerboard) was 4 µg/mL and the MIC antibiotic only ([7]; SP-BIM 13 checkerboard) was 4 µg/mL. The “MIC in combination, Antibiotic” value [7, 23] was 0.5 µg/mL, the “MIC in combination, Antibiotic” value [7, 17] was 0.5 µg/mL and the FIC of antibiotic ([7]; in combination with SP-BIM 9) was 0.13. For the same compound, the FIC of antibiotic ([7]; in combination with SP-BIM 13) was 0.1, the “MIC in combination, SP-BIM 13” value [8, 15] was 32 µg/mL and the “FIC of SP-BIM 13” value [8, 16] was 0.1. The Interpretation ([8]; antibiotic + SP-BIM 13) was “Synergy (Synergy: FICI≤0.5)”, the “Σ FIC” value ([8]; antibiotic + SP-BIM 13) was under 0.1 and the MIC antibiotic only ([8]; SP-BIM 9 checkerboard) was over 250 µg/mL. For the same compound, the MIC antibiotic only ([8]; SP-BIM 13 checkerboard) was 250 µg/mL, the “MIC in combination, Antibiotic” value [8, 17] was 4 µg/mL and the FIC of antibiotic ([8]; in combination with SP-BIM 13) was 0.02. For the same compound, the “MIC of antibiotic, No Compound” value [9] was over 250 µg/mL, the “MIC of antibiotic, No Compound” value [10] was 16 µg/mL and the “MIC in combination: Antibiotic” value [11, 20] was 125. For the same compound, the “MIC in combination, SP-BIM 9” value [11, 21] was 125 µg/mL, the “FIC of SP-BIM 9” value [11, 22] was 0.5 and the “FIC of SP-BIM 13” value [11, 16] was 0.3. For the same compound, the Interpretation ([11]; antibiotic + SP-BIM 9) was “Synergy (Synergy: FICI≤0.5)”, the “Σ FIC” value ([11]; antibiotic + SP-BIM 9) was under 0.6 and the Interpretation ([11]; antibiotic + SP-BIM 13) was “Additive (Additive: FICI>0.5-1.0)”. The “Σ FIC” value ([11]; antibiotic + SP-BIM 13) was under 0.8, the MIC antibiotic only [11] was over 250 and the MIC antibiotic only ([11]; SP-BIM 9 checkerboard) was 250 µg/mL. For the same compound, the “MIC in combination, Antibiotic” value [11, 23] was 16 µg/mL, the FIC of antibiotic ([11]; combination with SP-BIM 13) was 0.5 and the FIC of antibiotic ([11]; in combination with SP-BIM 9) was 0.064.
With `NC[C@H]1O[C@H](O[C@H]2[C@H](O)[C@@H](O[C@H]3O[C@H](CO)[C@@H](O)[C@H](N)[C@H]3O)[C@H](N)C[C@@H]2N)[C@H](O)[C@@H](O)[C@@H]1O` [Kanamycin, kanamycin] the Zone of clearance ([12]; MRSA strain 1594) was 11.5 mm, the “Interpretive standard (resistant/susceptible)” value ([12]; MRSA strain 1594) was “R” and the Zone of clearance ([12]; MRSA strain 1621) was 19.5 mm. For the same compound, the “Interpretive standard (resistant/susceptible)” value ([12]; MRSA strain 1621) was “S”, the Zone of clearance ([12]; MRSA strain 5455) was 19.5 mm and the “Interpretive standard (resistant/susceptible)” value ([12]; MRSA strain 5455) was “S”. For the same compound, the Zone of clearance ([12]; MRSA strain 5872) was 0.0 mm, the “Interpretive standard (resistant/susceptible)” value ([12]; MRSA strain 5872) was “R” and the Zone of clearance ([12]; MRSA strain 7153) was 19.5 mm. For the same compound, the “Interpretive standard (resistant/susceptible)” value ([12]; MRSA strain 7153) was “S”, the Zone of clearance ([12]; MRSA strain 7172) was 20.5 mm and the “Interpretive standard (resistant/susceptible)” value ([12]; MRSA strain 7172) was “S”. For the same compound, the Zone of clearance ([12]; MRSA strain 7698) was 8.5 mm, the “Interpretive standard (resistant/susceptible)” value ([12]; MRSA strain 7698) was “R” and the Zone of clearance ([12]; MRSA strain 10132) was 8.0 mm. For the same compound, the “Interpretive standard (resistant/susceptible)” value ([12]; MRSA strain 10132) was “R”, the “MIC of antibiotic, No Compound” value [13] was 250 µg/mL and the “MIC of Kanamycin in combination with 32 μg/mL SP-BIM 28” value ([14]; E. coli O157:H7, with 32 μg/mL SP-BIM 28) was 1 µg/mL. It also gave an MIC ([14]; Escherichia coli, read-out: MIC of Kanamycin) of 8 µg/mL.

Source: patent US12285407B2, “Bis-indolylmethane derivatives and uses thereof” (The University of The West Indies, priority 2018, dated 2025)
